From patent publication US20030073846A1, “Aminoalcohol derivatives” (priority 2000, published 2003)
Structures can show the parent of a compound that is named as a salt.

System: anesthetized dog
Assay: Effect on the increase in intravesical pressure induced by carbachol in anesthetized dog
Assay type: in vivo
Details: for Increase in intravesical pressure: female Beagle dogs under halothane anesthesia, N = 3, P < 0.01 vs Control; for relaxation effect on the smooth muscle in the urinary bladder: conclusion in words from the test results of Test 1
Method: Effect on the increase in intravesical pressure induced by carbachol in anesthetized dog
Female Beagle dogs weighing 8.0-15.0 kg were fasted for 24 hours and maintained under halothane anesthesia. A 12F Foley catheter was lubricated with water soluble jelly, inserted into the urethral orifice and advanced approximately 10 cm until the balloon tip was placed well inside the bladder. The balloon was then inflated with 5 ml of room air and catheter slowly withdrawn just part the first resistance that is felt at the bladder neck. Urine was completely drained out through the catheter, and 30 ml of biological saline was infused. The catheter was connected to pressure transducer, and intravesical pressure was continuously recorded. The test compound was injected intravenously at five minutes before the administration of carbachol (1.8 μg/kg).

Structure (SMILES): OC[C@H](Cc1ccc(O)cc1)NC[C@H](O)COc1ccccc1 [Test compound (1), (S)-1-Phenoxy-3-[[(S)-1-hydroxy-3-(4-hydroxyphenyl)-2-propyl]amino]-2-propanol]
- Increase in intravesical pressure (0.032 mg/kg intravenously five minutes before carbachol (1.8 μg/kg), Control 6.8 ± 1.1): 2.0 ± 0.3 mmHg
- relaxation effect on the smooth muscle in the urinary bladder: possess a relaxation effect on the smooth muscle in the urinary bladder

Structure (SMILES): CC(C)(Cc1ccc(Oc2ccc(C(N)=O)cn2)cc1)NC[C@H](O)COc1cccc2[nH]c3ccccc3c12 [Test compound (2), (S)-4-[2-Hydroxy-3-[[2-[4-(5-carbamoyl-2-pyridyloxy)phenyl]-1,1-dimethylethyl]amino]propoxy]-carbazole hydrochloride]
- Increase in intravesical pressure (0.100 mg/kg intravenously five minutes before carbachol (1.8 μg/kg), Control 6.9 ± 0.7): 4.3 ± 0.3 mmHg
- relaxation effect on the smooth muscle in the urinary bladder: possess a relaxation effect on the smooth muscle in the urinary bladder
